Structures are written as SMILES. pIC50: −log10 of the molar value. Where only a bound is given, the exact number is not on record here.

For assay [1], the system named is BT474 and HN5 tumor cell lines. Kind of assay: Methylene blue growth inhibition assay (cellular Method A). Type of assay: cell-based, Human. The note with it: Homo sapiens, BT-474, 72 h, 3 days, read-out: Activity (Method): growth inhibition IC50 class. An outline of the steps: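 Colo205, BT474 and HN5 cells in DMEM/10% FBS (BT474 10,000, HN5 3,000 cells/well) treated next day with compound in DMEM, 0.3% final DMSO, for 3 days at 37° C. Biomass stained with methylene blue, solubilized, read at OD 620; IC50 interpolated by nonlinear regression from % inhibition versus vehicle.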

The next assay addresses T1, ErbB2 or EGFR.
T1 construct: enzymes purified from a baculovirus expression system; Reagent production was conducted essentially as described in Brignola, P. S., et al, (2002) J. Biol. Chem. 277(2): 1576-1585
Put plainly: ErbB family substrate phosphorylation enzyme assay (HTRF), Method A or Method B. It is filed as biochemical. An outline of the steps:
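Baculovirus-expressed EGFR or ErbB2 (0.8 or 10 nM in enzyme mix) phosphorylates biotinylated Peptide C with 20 µM ATP and 0.8 µM peptide (substrate-mix levels), MnCl2, pH 7.5. Reaction ran 90 min at 20 °C with EDTA stop and HTRF anti-phosphotyrosine read. Method A: enzyme added last; Method B: 1 h enzyme–compound preincubation.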
(In general: TR-FRET usually uses a lanthanide donor and a delayed reading to cut background.)

The mark [2] stands for this setting: Method B: enzyme mix pre-incubated with compound 1 hour at 20° C., started with substrate mix.
Setting [3] is: Method A: substrate mix added first, reaction started with enzyme mix.

As for `Cc1ccsc1C(=O)Nc1cccc(-c2nn3ccccc3c2-c2ccnc(Nc3cccc(F)c3)n2)c1` [Example 77, N-[3-(3-{2-[(3-fluorophenyl)amino]-4-pyrimidinyl}pyrazolo[1,5-a]pyridin-2-yl)phenyl]-3-methyl-2-thiophenecarboxamide], in assay [1], the negative-log IC50 (pIC50) – broadly, the IC50 on a negative log10 scale, so that one unit is a factor of ten – is 6.00 to 7.00. The “Activity (Method): pIC50 class against ErbB2 or EGFR” value (from here on “Activity (Method): pIC50 class”) on ErbB2 or EGFR (setting [2]) is reported as “+++ (B) (at least one pIC50 measurement of greater than 7 against either ErbB2 or EGFR)”.

Turning to `O=C(Nc1cccc(-c2nn3ccccc3c2-c2ccnc(Nc3ccc(N4CCOCC4)c(F)c3)n2)c1)c1c(F)cccc1F` [Example 99, 2,6-Difluoro-N-{3-[3-(2-{[3-fluoro-4-(4-morpholinyl)-phenyl]amino}-4-pyrimidinyl)pyrazolo[1,5-a]pyridin-2-yl]phenyl}benzamide], the pIC50 in assay [1] was over 7.00. Further, the “Activity (Method): pIC50 class” value at ErbB2 or EGFR (setting [3]) was “+++ (A) (at least one pIC50 measurement of greater than 7 against either ErbB2 or EGFR)”.

Take `Cc1ccc(Nc2nccc(-c3c(-c4cccc(NC(=O)c5cc(F)ccc5F)c4)nn4ccccc34)n2)cc1S(N)(=O)=O` [Example 52, N-{3-[3-(2-{[3-(Aminosulfonyl)-4-methylphenyl]amino}-4-pyrimidinyl)pyrazolo[1,5-a]pyridin-2-yl]phenyl}-2,5-difluorobenzamide]: in assay [1], the pIC50 is 6.00 to 7.00. Further, on ErbB2 or EGFR (setting [3]), the “Activity (Method): pIC50 class” value was “+++ (A) (at least one pIC50 measurement of greater than 7 against either ErbB2 or EGFR)”.

As for `O=C(Nc1cccc(-c2nn3c(C(F)(F)F)cccc3c2-c2ccnc(Nc3ccccc3)n2)c1)c1c(F)cccc1F` [Example 152, N-[3-(3-{2-[Phenylamino]-4-pyrimidinyl}-7-trifluoropyrazolo[1,5-b]pyridin-2-yl)phenyl]-2,6-difluorobenzamide], the pIC50 in assay [1] is 6.00 to 7.00. For the same molecule, the “Activity (Method): pIC50 class” value on ErbB2 or EGFR (setting [2]) was “++ (B) (at least one pIC50 measurement greater than 6 against either ErbB2 or EGFR but no measurement greater than pIC50 of 7)”.

On to `Cc1c(F)cccc1C(=O)Nc1cccc(-c2nn3ccccc3c2-c2ccnc(Nc3cccc(F)c3)n2)c1` [Example 71, 3-Fluoro-N-[3-(3-{2-[(3-fluorophenyl)amino]-4-pyrimidinyl}pyrazolo[1,5-a]pyridin-2-yl)phenyl]-2-methylbenzamide], for which the negative-log IC50 (pIC50) in assay [1] was 6.00 to 7.00. Besides, at ErbB2 or EGFR (setting [2]), the “Activity (Method): pIC50 class” value is reported as “++ (B) (at least one pIC50 measurement greater than 6 against either ErbB2 or EGFR but no measurement greater than pIC50 of 7)”.

As for `N#Cc1cc(Nc2nccc(-c3c(-c4cccc(NC(=O)c5c(F)cccc5F)c4)nn4ccccc34)n2)ccc1-n1cccc1` [Example 90], the pIC50 in assay [1] is 6.00 to 7.00. For the same molecule, at ErbB2 or EGFR (setting [3]), the “Activity (Method): pIC50 class” value was “++ (A) (at least one pIC50 measurement greater than 6 against either ErbB2 or EGFR but no measurement greater than pIC50 of 7)”.

As for `O=C(Nc1cccc(-c2nn3ccccc3c2-c2ccnc(Nc3cccc(-c4cnco4)c3)n2)c1)c1c(F)cccc1F` [Example 35, 2,6-Difluoro-N-{3-[3-(2-{[3-(1,3-oxazol-5-yl)phenyl]amino}-4-pyrimidinyl)pyrazolo[1,5-a]pyridin-2-yl]phenyl}benzamide], in assay [1], the pIC50 was over 7.00. In addition, on ErbB2 or EGFR (setting [2]), the “Activity (Method): pIC50 class” value is “+++ (B) (at least one pIC50 measurement of greater than 7 against either ErbB2 or EGFR)”.

For the molecule `O=C(Nc1cccc(-c2nn3ccccc3c2-c2ccnc(Nc3cccc(F)c3)n2)c1)c1c(F)cccc1C(F)(F)F` [Example 13, 2-Fluoro-N-(3-{3-[2-(3-fluoro-phenylamino)-pyrimidin-4-yl]-pyrazolo[1,5-a]pyridin-2-yl}-phenyl)-6-trifluoromethyl-benzamide], the pIC50 in assay [1] was over 7.00. Besides, on ErbB2 or EGFR (setting [2]), the “Activity (Method): pIC50 class” value was “+++ (B) (at least one pIC50 measurement of greater than 7 against either ErbB2 or EGFR)”.

Regarding `O=C(Nc1cccc(-c2nn3ccccc3c2-c2ccnc(Nc3cccc(F)c3)n2)c1)c1cnc2ccccc2n1` [Example 24, N-[3-(3-{2-[(3-Fluorophenyl)amino]-4-pyrimidinyl}pyrazolo[1,5-a]pyridin-2-yl)phenyl]-2-quinoxalinecarboxamide], the pIC50 in assay [1] was under 6.00. Further, on ErbB2 or EGFR (setting [2]), the “Activity (Method): pIC50 class” value was “+ (B) (no pIC50 measurement greater than 6 against either ErbB2 or EGFR)”.

As to `O=C(Nc1cccc(-c2nn3ccccc3c2-c2ccnc(Nc3cccc(F)c3)n2)c1)c1ccccc1OC(F)(F)F` [Example 68, N-[3-(3-{2-[(3-fluorophenyl)amino]-4-pyrimidinyl}-pyrazolo[1,5-a]pyridin-2-yl)phenyl]-2-[(trifluoromethyl)oxy]benzamide], the pIC50 in assay [1] was 6.00 to 7.00. In addition, the “Activity (Method): pIC50 class” value at ErbB2 or EGFR (setting [2]) is recorded as “++ (B) (at least one pIC50 measurement greater than 6 against either ErbB2 or EGFR but no measurement greater than pIC50 of 7)”.

With `CN(C)CCCc1ccc(Nc2nccc(-c3c(-c4cccc(NC(=O)c5c(F)cccc5F)c4)nn4ccccc34)n2)cc1` [Example 112, N-(3-{3-[2-({4-[3-(dimethylamino)propyl]phenyl}-amino)-4-pyrimidinyl]pyrazolo[1,5-a]pyridin-2-yl}phenyl)-2,6-difluorobenzamide], in assay [1], the pIC50 was over 7.00. For the same molecule, on ErbB2 or EGFR (setting [2]), the “Activity (Method): pIC50 class” value is “+++ (B) (at least one pIC50 measurement of greater than 7 against either ErbB2 or EGFR)”.

Turning to `O=C(Nc1cccc(-c2nn3ccccc3c2-c2ccnc(Nc3ccc(N4CCCC4)c(F)c3)n2)c1)c1c(F)cccc1F` [Example 148, 2,6-Difluoro-N-{3-[3-(2-{[3-fluoro-4-(1-pyrrolidinyl)-phenyl]amino}-4-pyrimidinyl)pyrazolo[1,5-a]pyridin-2-yl]phenyl}benzamide], the pIC50 in assay [1] is over 7.00. Besides, the “Activity (Method): pIC50 class” value on ErbB2 or EGFR (setting [3]) is given as “+++ (A) (at least one pIC50 measurement of greater than 7 against either ErbB2 or EGFR)”.

For `O=C(Nc1cccc(-c2nn3ccccc3c2-c2ccnc(Nc3cccc(F)c3)n2)c1)c1sccc1Cl` [Example 79, 3-Chloro-N-[3-(3-{2-[(3-fluorophenyl)amino]-4-pyrimidinyl}pyrazolo[1,5-a]pyridin-2-yl)phenyl]-2-thiophenecarboxamide], the pIC50 in assay [1] was 6.00 to 7.00. Moreover, the “Activity (Method): pIC50 class” value on ErbB2 or EGFR (setting [2]) is “++ (B) (at least one pIC50 measurement greater than 6 against either ErbB2 or EGFR but no measurement greater than pIC50 of 7)”.

Regarding `S=C(Nc1cccc(-c2nn3ccccc3c2-c2ccnc(Nc3ccc4c(c3)OCCO4)n2)c1)c1ccccc1Cl` [Example 8, 2-Chloro-N-(3-{3-[2-(2,3-dihydro-benzo[1,4]dioxin-6-ylamino)-pyrimidin-4-yl]-pyrazolo[1,5-a]pyridin-2-yl}-phenyl)-thiobenzamide], in assay [1], the pIC50 is 6.00 to 7.00. For the same molecule, the “Activity (Method): pIC50 class” value at ErbB2 or EGFR (setting [3]) was “++ (A) (at least one pIC50 measurement greater than 6 against either ErbB2 or EGFR but no measurement greater than pIC50 of 7)”.

As to `COc1ccc(Nc2nccc(-c3c(-c4cccc(NC(=O)c5c(F)cccc5F)c4)nn4ccccc34)n2)cc1N1CCNCC1` [Example 111, 2,6-Difluoro-N-{3-[3-(2-{[4-(methyloxy)-3-(1-piperazinyl)phenyl]amino}-4-pyrimidinyl)pyrazolo[1,5-a]pyridin-2-yl]phenyl}benzamide], the pIC50 in assay [1] is over 7.00. In addition, the “Activity (Method): pIC50 class” value on ErbB2 or EGFR (setting [2]) is listed as “+++ (B) (at least one pIC50 measurement of greater than 7 against either ErbB2 or EGFR)”.

With `O=C(Nc1cccc(-c2nn3ccccc3c2-c2ccnc(Nc3ccc(N4CCCCC4)c(F)c3)n2)c1)c1c(F)cccc1F` [Example 147, 2,6-Difluoro-N-{3-[3-(2-{[3-fluoro-4-(1-piperidinyl)-phenyl]amino}-4-pyrimidinyl)pyrazolo[1,5-a]pyridin-2-yl]phenyl}benzamide], the pIC50 in assay [1] is 6.00 to 7.00. Besides, on ErbB2 or EGFR (setting [3]), the “Activity (Method): pIC50 class” value is “+++ (A) (at least one pIC50 measurement of greater than 7 against either ErbB2 or EGFR)”.

Turning to `Cc1cc(C(=O)Nc2cccc(-c3nn4ccccc4c3-c3ccnc(Nc4cccc(F)c4)n3)c2)n(C)n1` [Example 23, N-[3-(3-{2-[(3-Fluorophenyl)amino]-4-pyrimidinyl}pyrazolo[1,5-a]pyridin-2-yl)phenyl]-1,3-dimethyl-1H-pyrazole-5-carboxamide], in assay [1], the pIC50 was under 6.00. Further, the “Activity (Method): pIC50 class” value at ErbB2 or EGFR (setting [2]) is given as “++ (B) (at least one pIC50 measurement greater than 6 against either ErbB2 or EGFR but no measurement greater than pIC50 of 7)”.

For `O=C(Nc1cccc(-c2nn3ccccc3c2-c2ccnc(Nc3ccc(C(=O)N4CCOCC4)cc3)n2)c1)c1c(F)cccc1F` [Example 100, 2,6-Difluoro-N-{3-[3-(2-{[4-(4-morpholinylcarbonyl)-phenyl]amino}-4-pyrimidinyl)pyrazolo[1,5-a]pyridin-2-yl]phenyl}benzamide], in assay [1], the pIC50 is over 7.00. Also, the “Activity (Method): pIC50 class” value at ErbB2 or EGFR (setting [3]) is given as “+++ (A) (at least one pIC50 measurement of greater than 7 against either ErbB2 or EGFR)”.

For `O=C(Nc1cccc(-c2nn3ccccc3c2-c2ccnc(Nc3ccc(N4CCOCC4)cc3)n2)c1)c1c(F)cccc1F` [Example 27, 2,6-Difluoro-N-{3-[3-(2-{[4-(4-morpholinyl)phenyl]amino}-4-pyrimidinyl)pyrazolo[1,5-a]pyridin-2-yl]phenyl}benzamide], in assay [1], the pIC50 is over 7.00. Also, the “Activity (Method): pIC50 class” value on ErbB2 or EGFR (setting [2]) is “++ (B) (at least one pIC50 measurement greater than 6 against either ErbB2 or EGFR but no measurement greater than pIC50 of 7)”.

The values above are taken from patent US7812022B2 (GlaxoSmithKline LLC, priority 2004, dated 2010).
